# Results published in PMC3707170, “Polyketides from a Marine-Derived Fungus Xylariaceae sp” (Marine Drugs, 2013).
# Read-outs that look alike come from different tables or passages of the source.
# Experiments:
# cathepsin B = target: T1, cathepsin B (Homo sapiens, UniProt P07858); assay: Cathepsin B activity assay (fluorogenic Z-Arg-Arg-AMC substrate); format: biochemical; settings: cathepsin B from human liver; read-out: IC50, inhibitory activity towards cathepsin B
# T1 construct: cathepsin B from human liver (Sigma); purchased Sigma; host or cells: human liver (tissue-purified)
# Method: (§1) Enzyme-inhibitory activity assays were tested according to literatures reported.
# Figure S32. IR spectrum of 8-methoxy-1-naphthyl-1-(6′-O-acetyl)-α-glucopyranoside (10).
# S1. Enzyme Inhibitory Assay
# S1.1. Cathepsin B Activity Assay
# The assay was performed in 96-well plate according to a published method with modification.
# Brifely, 50 μL reaction buffer (100 mM sodium acetate (pH 5.5), 1 mM EDTA, 4 mM dithiothreitol) containing 0.0025 unit of cathepsin B from human liver (Sigma, one unit will liberate 1 nanomole of 7-amino-4-methylcoumarin from Z-Arg-Arg 7-amido-4-methylcoumarin per min at pH 6.0 at 40 °C) and 2 μL test compounds dissolved in DMSO were added to each well of a 96-well plate. After preincubation for 15 min at room temperature, 50 μL of reaction buffer containing 100 μM Z-Arg-Arg-7-amido-4-methylcoumarin (Sigma) was added and incubated for 30 min at room temperature.
# Fluorescence was measured using a microplate reader (Wallac 1420 Victor 2, PerkinElmer, HolIand) with an excitation of 355 nm and emission at 460 nm.
# His-taged human IMPDH П was recombinantly expressed in Escherichia coli and purified by Ni-NTA affinity chromotagraphy as described previously. The IMPDH activity assay was performed in 200-μL assay volume of 96-well plate. Briefly, 2 μL of test compound (dissolved in DMSO) or DMSO and 150 μL enzyme buffer containing 100 mM KH2PO4, 0.5 mM EDTA pH 8, and 2 mM dithiothreitol and 50 nM IMPDH were added into the plate and incubated at 37 °C for 15 min. The reaction was initiated by adding 50 μL reaction buffer containing a final concentration of 200 μM inosine 5-monophosphate (Sigma) and 200 μM NAD (Sigma). The OD was read at 340 nm after incubation at 37 °C for 30 min with a microplate reader (Wallac 1420 Victor 2, PerkinElmer, HolIand).
# (1 picture or pasted object on this page, not shown here)
# IMPDH = target: T2, IMPDH (Homo sapiens, UniProt P12268); assay: IMPDH enzyme assay (OD at 340 nm); format: biochemical; settings: recombinant human IMPDH II; read-out: IC50, inhibitory activity towards IMPDH
# T2 construct: His tag; made in house; host or cells: Escherichia coli
# SHP2 = target: T3, SHP2 (Homo sapiens, UniProt Q06124); assay: SHP2 activity assay (pNPP substrate); format: biochemical; settings: human recombinant enzyme, read-out: IC50, inhibitory activity towards SHP2
# T3 construct: made in house; host or cells: E. coli
# T3 sequence (Q06124 1-593): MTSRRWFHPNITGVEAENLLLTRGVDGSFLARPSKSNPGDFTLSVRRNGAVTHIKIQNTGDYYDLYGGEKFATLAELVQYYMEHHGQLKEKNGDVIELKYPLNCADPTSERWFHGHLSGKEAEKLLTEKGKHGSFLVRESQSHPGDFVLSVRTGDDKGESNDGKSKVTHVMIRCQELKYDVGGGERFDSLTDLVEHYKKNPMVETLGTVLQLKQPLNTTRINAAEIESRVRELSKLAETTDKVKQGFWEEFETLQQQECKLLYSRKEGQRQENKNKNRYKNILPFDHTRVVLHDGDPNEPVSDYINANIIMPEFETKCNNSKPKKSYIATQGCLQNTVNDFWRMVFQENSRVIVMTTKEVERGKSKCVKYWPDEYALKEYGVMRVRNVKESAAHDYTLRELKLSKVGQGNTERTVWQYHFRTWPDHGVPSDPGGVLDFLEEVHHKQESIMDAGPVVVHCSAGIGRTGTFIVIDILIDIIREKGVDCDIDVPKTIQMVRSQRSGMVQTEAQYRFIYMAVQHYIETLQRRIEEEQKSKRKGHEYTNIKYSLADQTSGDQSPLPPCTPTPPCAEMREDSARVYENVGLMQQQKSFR
# Method: as §1
# S1.3. PTP1B and SHP2 Activity Assays
# Human recombinant PTP1B and SHP2 were expressed in E. coli and purifed by Ni-NTA affinity chromotagraphy in our laboratory, respectively. The enzyme activity was measured using p-nitrophenyl phosphate (pNPP) as substrate in a 96-well plate. Brifely, purified recombinant PTP1B or SHP2 (0.05 μg) in 50 μL buffer containing 50 mM citrate (pH 6.0), 0.1 M NaCl, 1 mM EDTA, and 1 mM dithiothreitol (DTT) and test compounds were added to each well of a 96-well plate. After preincubation for 15 min at room temperature, 50 μL of reaction buffer containing 2 mM pNPP was added and incubated at 37 °C for 30 min. The PTP1B or SHP2 activity was measured by detecting the absorbance at 405 nm for the amount of produced p-nitrophenol.
# (§2) S2. Larval Settlement Bioassays
# (§3) Antifouling activity of compounds was evaluated in settlement inhibition assays with laboratory-reared B. neritina larvae. Larval settlement bioassays were performed using sterile 24-well polystyrene plates as previously reported. Briefly, the stock solution of tested samples in DMSO was diluted with autoclaved filtered sea water (FSW) to concentrations ranging from 1 to 300 ppm. Then the EC50 and LC50 values of active compounds were calculated. In this way, about 20 competent larvae were added to each well in 1 mL of the test solution. Wells containing only FSW with DMSO served as the controls.
# (§4) Three replicates of each treatment were used. The plates were incubated at 27 °C for 1 h. The percentage of larval settlement was determined by counting the settled, live individuals under a dissecting microscope and expressing the result as a proportion of the total number of larvae in the well. EC50 (inhibits 50% of settlement of B. neritina larvae in comparison with the control) and LC50 (refers to the concentration that kills 50% of the test organisms in comparison with the control) levels of active compounds were calculated by using the Excel software program.
# Bugula neritina larvae = assay: Larval settlement (antifouling) bioassay; settings: for LC50/EC50: B. neritina larvae, ratio of lethal to settlement-inhibiting concentration; for EC50: Bugula neritina, 1 h, read-out: EC50, antifouling activity against B. neritina larvae settlement
# Method: Larval culture and larval settlement assays matched the method reported in reference. […]
# as §2, §3, §4
# PTPlB = target: T4, PTPlB (Homo sapiens, UniProt P18031); assay: PTP1B activity assay (pNPP substrate); format: biochemical; settings: human recombinant enzyme, read-out: IC50, inhibitory activity towards PTPlB
# T4 construct: made in house; host or cells: E. coli
# T4 sequence (P18031 1-435): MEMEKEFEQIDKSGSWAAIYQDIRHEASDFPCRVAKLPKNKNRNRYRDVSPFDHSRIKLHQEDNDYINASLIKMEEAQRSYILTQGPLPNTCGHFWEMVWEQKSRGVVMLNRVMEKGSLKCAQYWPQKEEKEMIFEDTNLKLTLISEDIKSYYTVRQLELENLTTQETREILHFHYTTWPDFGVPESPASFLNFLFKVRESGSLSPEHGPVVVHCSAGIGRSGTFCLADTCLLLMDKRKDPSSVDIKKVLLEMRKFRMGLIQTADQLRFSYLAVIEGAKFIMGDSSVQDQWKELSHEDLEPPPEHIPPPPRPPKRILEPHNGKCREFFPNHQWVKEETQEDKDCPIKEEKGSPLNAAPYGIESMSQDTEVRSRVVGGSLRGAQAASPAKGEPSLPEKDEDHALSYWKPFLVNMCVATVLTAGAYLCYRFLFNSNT
# [1] = design: method as in doi:10.1016/j.tet.2009.02.054; settings: previous studies ref 23; cited from earlier work
SMILES,IC50 (SHP2) [µM],IC50 (cathepsin B) [µM],IC50 (IMPDH) [µM],LC50/EC50 (Bugula neritina larvae),further results
"Cc1c(O)c(C(=O)O)c(O)c2c1[C@H](C)[C@@H](C)OC2=O [Compound 4, dihydrocitrinone]",–,28.5 ± 1.7,–,–,–
"Cc1c2c(c3oc4cc(=O)c(C)c5c-4c(c3c1O)O[C@H](C)[C@H]5C)O[C@H](C)[C@H]2C [Compound 6, dicitrinin A]",58.4 ± 4,–,98.7 ± 6.2,> 56,EC50 (Bugula neritina larvae): 1.76 ± 0.8 µg/mL
"Cc1c([C@H](C)[C@@H](C)O)cc(O)c(C(=O)O)c1O [Compound 7, phenol A acid]",–,20.4 ± 1.9,–,> 15,EC50 (Bugula neritina larvae; 27 °C): 14.3 ± 1.72 µg/mL
"CC(=O)N[C@@H](CC(C)C)C(=O)N[C@@H](CC(C)C)C(=O)N[C@H](C=O)CCCNC(=N)N [leupeptin, reference compound]",–,0.03,–,–,–

# Continued, in another order:
IC50 (SHP2) [µM],SMILES,IC50 (cathepsin B) [µM],IC50 (IMPDH) [µM],LC50/EC50 (Bugula neritina larvae),further results
4.1 ± 0.6,"O=C1C[C@@H](O)[C@@H](O)c2cccc(O)c21 [Compound 17, (3R,4S)-(+)-4-hydroxy-6-deoxyscytalone]",–,41.2 ± 3.6,–,IC50 (PTPlB): 13.9 ± 1.8 µM; phytotoxicity (in words) [1]: phytotoxic substance
2.8,"C[C@H]1[C@H](C)CC[C@]2(C(=O)O)CC[C@]3(C)C(=CC[C@@H]4[C@@]5(C)CC[C@H](O)C(C)(C)[C@@H]5CC[C@]43C)[C@H]12 [ursolic acid, reference compound]",–,–,–,–
